Data reported in PMC3870299, “Comparative genomics and functional analysis of rhamnose catabolic pathways and regulons in bacteria” (Frontiers in Microbiology, 2013).

Tests used:
Ca_RhaEW = biological target: T1, Ca_RhaEW (Chloroflexus aurantiacus, UniProt A9WGG0); assay: coupled NADH detection at […] nm and GC-MS of products; assay type: biochemical; conditions: substrate made in situ from L-Rha by Ec_RhaA and Tm_RhaB, NAD+ 1.4 mM, Zn2+, pH 8, 30-70 C
T1 construct: gene Caur_2283; full-length, N-terminal His6 tag, expressed in E. coli, Ni-NTA purified

Bs_RhaEW = biological target: T2, Bs_RhaEW (Bacillus subtilis, UniProt P40747); assay: coupled NADH detection at […] nm; assay type: biochemical; conditions: substrate made in situ from L-Rha by Ec_RhaA and Tm_RhaB; NAD+ 2.5 mM; Zn2+; pH 7.5; 25 C
T2 construct: gene yuxG; full-length, N-terminal His6 tag, expressed in E. coli, Ni-NTA purified

RhaR = biological target: T3, RhaR (Chloroflexus aurantiacus, UniProt A9WGG7); assay: EMSA, loss of RhaR-DNA binding; conditions: effector at 2 mM; RhaR 1 uM; pH 8.0; 50 C; L-rhamnulose made enzymatically from L-Rha by Ec_RhaA; Figure 5 legend prints L-rhamnose for this effect (apparent misprint)
T3 construct: gene Caur_2290

St_RhaZ = biological target: T4, St_RhaZ (Salmonella enterica, UniProt Q8ZKS2); assay: coupled NADH oxidation at […] nm; assay type: biochemical; conditions: substrate made in situ by Ec_RhaA, Tm_RhaB and St_RhaD; NADH 0.25 mM; pH 7.5; 25 C; no dehydrogenase activity with NAD+
T4 construct: gene STM4044; full-length, N-terminal His6 tag, expressed in E. coli, Ni-NTA purified
T4 sequence (Q8ZKS2 1-382): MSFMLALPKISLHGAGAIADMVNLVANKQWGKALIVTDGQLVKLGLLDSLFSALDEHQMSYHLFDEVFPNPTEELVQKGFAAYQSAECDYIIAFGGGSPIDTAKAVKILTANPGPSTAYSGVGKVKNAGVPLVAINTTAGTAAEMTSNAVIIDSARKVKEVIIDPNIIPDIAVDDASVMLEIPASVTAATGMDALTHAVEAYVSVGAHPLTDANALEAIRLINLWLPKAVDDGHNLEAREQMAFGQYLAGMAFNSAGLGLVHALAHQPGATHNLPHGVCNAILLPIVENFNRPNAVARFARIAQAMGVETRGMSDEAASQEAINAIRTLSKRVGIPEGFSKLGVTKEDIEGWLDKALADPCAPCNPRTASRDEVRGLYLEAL
Text: St_RhaZ was active under these conditions

RhaR (DeoR family) = biological target: T5, RhaR (DeoR family) (Chloroflexus aurantiacus J-10-fl, UniProt A9WGG7 1-260); assay: EMSA; RhaR 0.25-1 uM, no effector; poly(dI-dC); EMSA: 50 mM Tris-HCl pH 8.0, 150 mM NaCl, 5 mM MgCl2, 1 mM DTT (printed DDT), 0.05% NP-40, 2.5% glycerol, 1 ug poly(dI-dC), 0.2 nM DNA, 20 ul, 25 min at 50 C; 1.5% agarose gel at room temperature; conditions: protein: recombinant; tags: His6-Smt3 (SUMO) N-terminal tag, cleaved with Ulp1; blunt
T5 sequence: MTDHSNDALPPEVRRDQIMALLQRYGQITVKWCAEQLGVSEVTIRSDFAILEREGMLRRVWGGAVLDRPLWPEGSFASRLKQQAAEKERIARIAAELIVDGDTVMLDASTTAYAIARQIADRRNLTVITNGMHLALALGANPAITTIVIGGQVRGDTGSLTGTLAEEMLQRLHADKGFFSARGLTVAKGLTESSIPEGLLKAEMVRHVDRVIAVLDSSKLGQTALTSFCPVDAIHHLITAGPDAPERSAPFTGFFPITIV

T2 sequence (P40747 whole entry): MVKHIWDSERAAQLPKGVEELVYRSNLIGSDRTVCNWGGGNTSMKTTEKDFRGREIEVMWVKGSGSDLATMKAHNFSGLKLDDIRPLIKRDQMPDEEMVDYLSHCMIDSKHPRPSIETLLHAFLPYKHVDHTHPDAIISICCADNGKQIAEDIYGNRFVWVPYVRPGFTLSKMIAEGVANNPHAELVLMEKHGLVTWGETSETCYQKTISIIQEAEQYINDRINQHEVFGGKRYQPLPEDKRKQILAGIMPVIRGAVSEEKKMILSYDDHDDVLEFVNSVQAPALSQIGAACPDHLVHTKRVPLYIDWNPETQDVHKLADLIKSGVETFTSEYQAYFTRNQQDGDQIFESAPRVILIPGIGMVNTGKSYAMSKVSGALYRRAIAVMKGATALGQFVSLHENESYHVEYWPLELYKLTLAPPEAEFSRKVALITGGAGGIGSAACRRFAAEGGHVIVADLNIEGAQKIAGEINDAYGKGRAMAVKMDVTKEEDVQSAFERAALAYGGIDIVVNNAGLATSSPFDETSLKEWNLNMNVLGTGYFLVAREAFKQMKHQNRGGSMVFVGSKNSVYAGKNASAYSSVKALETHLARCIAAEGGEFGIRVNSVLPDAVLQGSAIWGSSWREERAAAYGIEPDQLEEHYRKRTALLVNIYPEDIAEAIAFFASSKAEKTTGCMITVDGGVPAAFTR
T1 sequence (A9WGG0 entry or part of it): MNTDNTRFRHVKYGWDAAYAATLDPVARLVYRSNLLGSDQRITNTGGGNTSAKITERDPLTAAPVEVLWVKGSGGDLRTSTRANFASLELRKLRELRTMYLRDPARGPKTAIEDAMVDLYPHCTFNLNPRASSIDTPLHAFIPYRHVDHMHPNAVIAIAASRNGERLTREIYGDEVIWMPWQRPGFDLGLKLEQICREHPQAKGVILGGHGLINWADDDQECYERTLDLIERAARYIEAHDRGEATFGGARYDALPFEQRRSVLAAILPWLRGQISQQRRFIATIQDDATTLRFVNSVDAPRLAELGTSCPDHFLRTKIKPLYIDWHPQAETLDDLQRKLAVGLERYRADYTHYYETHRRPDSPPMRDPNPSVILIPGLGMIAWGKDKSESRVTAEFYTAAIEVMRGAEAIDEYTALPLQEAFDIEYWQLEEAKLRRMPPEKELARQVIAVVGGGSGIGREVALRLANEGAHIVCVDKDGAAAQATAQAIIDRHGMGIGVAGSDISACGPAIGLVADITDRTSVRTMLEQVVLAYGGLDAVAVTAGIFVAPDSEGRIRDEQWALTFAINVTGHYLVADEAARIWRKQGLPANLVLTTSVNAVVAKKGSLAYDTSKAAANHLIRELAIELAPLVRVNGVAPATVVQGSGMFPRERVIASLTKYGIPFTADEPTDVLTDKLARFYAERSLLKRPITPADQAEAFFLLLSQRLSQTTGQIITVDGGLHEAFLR

## C[C@H](O)[C@H](O)[C@@H](O)C(=O)COP(=O)(O)O [L-rhamnulose-1-P]
Ca_RhaEW
  coupled NADH detection at 340 nm and GC-MS of products: Ca_RhaEW acts in vitro to convert L-rhamnulose-1-P to L-lactate and DHAP
Bs_RhaEW
  coupled NADH detection at 340 nm: The Bs_RhaEW protein showed weak, but reproducible activity

## C[C@@H]1OC(O)(CO)[C@H](O)[C@H]1O (stereo partly drawn) [L-rhamnulose]
RhaR
  EMSA, loss of RhaR-DNA binding: L-rhamnulose abolished the specific DNA-binding ability of RhaR

## NC(=O)C1=CN([C@@H]2O[C@H](COP(=O)(O)OP(=O)(O)OC[C@H]3O[C@@H](n4cnc5c(N)ncnc54)[C@H](O)[C@@H]3O)[C@@H](O)[C@H]2O)C=CC1 [NADH]
St_RhaZ
  coupled NADH oxidation at 340 nm: with the exception of supplying NADH as the cofactor. St_RhaZ was active under these conditions

## NC(=O)c1ccc[n+]([C@@H]2O[C@H](COP(=O)(O)OP(=O)(O)OC[C@H]3O[C@@H](n4cnc5c(N)ncnc54)[C@H](O)[C@@H]3O)[C@@H](O)[C@H]2O)c1 [NAD^+]
Ca_RhaEW; no product without NAD+, no activity with NADH
  coupled NADH detection at 340 nm and GC-MS of products: exclusion of NAD^+ which is an essential cofactor of L-lactaldehyde dehydrogenase
Bs_RhaEW
  coupled NADH detection at 340 nm: the reduction of NAD^+ or oxidation of NADH was monitored

B1: rhaR upstream 48-bp fragment (38-bp RhaR operator) (dsDNA)
DNA 1: GGGGGTTCGTAAAATCTCGTAAGTACTTGACAAATCTTGAAAAGGGGG
DNA 2: CCCCCTTTTCAAGATTTGTCAAGTACTTACGAGATTTTACGAACCCCC
RhaR (DeoR family)
  binding result: binds
